Data on four molecules can be found in patent US20210061917A1, “METHODS AND COMPOSITIONS FOR TREATING VITILIGO” (INSERM (Institut National de la Santé et de la Recherche …, priority 2018, published 2021).

Holding throughout (assay type): cell-based
One test deals with human melanocytes. In words: Melanocyte death after chemokine stimulation, IncuCyte live cell imaging. Conditions: for melanocyte death: chemokine 100 pg/ml, healthy and vitiligo melanocytes, 24 hrs, FIG. 2C.
The target of test [1] is T1, CXCR3 (Homo sapiens, UniProt P49682).
T1 sequence (P49682 1-415 isoform P49682-2): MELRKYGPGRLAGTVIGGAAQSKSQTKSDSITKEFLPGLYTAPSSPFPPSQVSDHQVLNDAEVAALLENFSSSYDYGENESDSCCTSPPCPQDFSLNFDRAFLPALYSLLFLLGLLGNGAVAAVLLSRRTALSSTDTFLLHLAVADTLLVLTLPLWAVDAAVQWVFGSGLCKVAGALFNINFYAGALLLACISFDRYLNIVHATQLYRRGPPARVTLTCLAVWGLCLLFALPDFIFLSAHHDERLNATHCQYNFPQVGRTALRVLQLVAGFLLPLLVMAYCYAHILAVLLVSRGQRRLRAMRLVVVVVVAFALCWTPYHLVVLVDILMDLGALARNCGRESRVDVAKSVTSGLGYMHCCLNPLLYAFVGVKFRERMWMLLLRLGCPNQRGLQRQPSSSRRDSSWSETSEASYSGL
The test is described as follows: CXCL10-induced melanocyte death, IncuCyte live cell imaging, with CXCR3 antagonist, blocking antibody or siCXCR3. The conditions noted are these: IFNγ-pretreated (50 ng/ml, 48 hrs) vitiligo melanocytes; AS612568 0.02, 0.2, 2 μM; FIG. 2A.
Protocol: (A) Effect of CXCL10 (5, 20, 100 pg/ml) on cell viability in unstimulated or IFNγ stimulated (50 ng/ml for 48 hrs) melanocytes from vitiligo patients, in presence or absence of CXCR3 antagonist AS612568 (0.02 μM, 0.2 μM or 2 μM) (n=5-8). Cell viability was monitored using lncuCyte® live cell fluorescence imaging system. (B) Effect of siCXCR3 or siC on CXCL10 (100 pg/ml)-induced death of healthy (n=4-8) and vitiligo (n=4) melanocytes. Melanocytes were tracked with CellTracker™ Red CMPTX dye and dead cells tracked with IncuCyte® Cytotox Green reagent. […] Cell viability was monitored using IncuCyte® live cell fluorescence imaging system. […] Results are expressed as mean with SEM, *P<0.05, **P<0.01 and ***P<0.001.
Melanocytes were plated in 96-well plates (10,000/well) and stimulated with 50 ng/ml IFNγ for 48 hrs prior to transfection with 50 or 80 nM siCXCR3 or siC (SmartPool scramble sequence siRNA, Dharmacon, France) or with 80 nM custom-designed siCXCR3B or siC (ThermoFisher, France) using Lipofectamine® RNAiMAX Reagent (Invitrogen, France) in optiMEM medium (Invitrogen). […] Finally, Incucyte® green Cytotox Reagent (100 nM, Essen Bioscience, Michigan, USA) was added to all wells and melanocyte death monitored in real-time using IncuCyte® Zoom live-cell imaging system (Essen Biosciences) which was inside a 37° C. humidified CO2 incubator scanning the plate every 2 hrs. […]

Test [2] deals with T1, CXCR3. In words: CXCL10-induced death of vitiligo melanocytes in co-culture with autologous CD3+ T cells, IncuCyte. The source says:
(A) CXCL10-induced death of vitiligo melanocytes in presence or absence of patients own autologous T cells. […] The next day, media was replaced and 3 days later patient's own CD3+ T cell were sorted and added to the melanocytes (n=3) prior to initiation of IncuCyte.

Protocol for human melanocytes: (A) Effect of CXCL10 (5, 20, 100 pg/ml) on cell viability in unstimulated or IFNγ stimulated (50 ng/ml for 48 hrs) melanocytes from vitiligo patients, in presence or absence of CXCR3 antagonist AS612568 (0.02 μM, 0.2 μM or 2 μM) (n=5-8). Cell viability was monitored using lncuCyte® live cell fluorescence imaging system. (B) Effect of siCXCR3 or siC on CXCL10 (100 pg/ml)-induced death of healthy (n=4-8) and vitiligo (n=4) melanocytes. Melanocytes were tracked with CellTracker™ Red CMPTX dye and dead cells tracked with IncuCyte® Cytotox Green reagent. (C) Healthy and vitiligo melanocytes (n=6-12) were transfected with custom-designed siCXCR3B or siC and melanocyte death shown at 24 hrs following CXCL10, CXCL9 or CXCL11 (100 pg/ml) stimulation. (D) Effect of CXCL10 (100 pg/ml) on cell viability in untreated or IFNγ pretreated (50 ng/ml for 48 hrs) melanocytes from vitiligo patients, in presence or absence of CXCR3 blocking antibody (MAB-160, R&D Systems, USA at 1 or 10 μg/ml) (n=3). Cell viability was monitored using IncuCyte® live cell fluorescence imaging system. Melanocytes were tracked with CellTracker™ Red CMPTX dye and dead cells tracked with IncuCyte® Cytotox Green reagent. Results are expressed as mean with SEM, *P<0.05, **P<0.01 and ***P<0.001.
Melanocytes were plated in 96-well plates (10,000/well) and stimulated with 50 ng/ml IFNγ for 48 hrs prior to transfection with 50 or 80 nM siCXCR3 or siC (SmartPool scramble sequence siRNA, Dharmacon, France) or with 80 nM custom-designed siCXCR3B or siC (ThermoFisher, France) using Lipofectamine® RNAiMAX Reagent (Invitrogen, France) in optiMEM medium (Invitrogen). […] Finally, Incucyte® green Cytotox Reagent (100 nM, Essen Bioscience, Michigan, USA) was added to all wells and melanocyte death monitored in real-time using IncuCyte® Zoom live-cell imaging system (Essen Biosciences) which was inside a 37° C. humidified CO2 incubator scanning the plate every 2 hrs. Multiple images were collected per well and quantification of dead melanocytes (yellow co-localised cells) was analysed using the integrated Zoom® software. […]

Regarding “CXCL10: recombinant human chemokine (PeproTech), CXCR3 ligand used as stimulus”, the “melanocyte death compared to non-stimulated melanocytes” value in the test on human melanocytes (vitiligo melanocytes, IFNγ pre-treated, CXCL10 5, 20, 100 pg/ml, dose-dependent, P=0.006, FIG. 2A) is given as “significantly increased melanocyte death”.
Consider `N#Cc1ccc(S(=O)(=O)N(Cc2ccc(-c3nnn[nH]3)c(F)c2)Cc2ccccc2F)cc1` [AS612568, 4-cyano-N-(3-fluoro-4-(1H-tetrazol-5-yl)benzyl)-N-(2-fluorobenzyl)benzenesulfonamide], for which the “melanocyte death induced by CXCL10” value on CXCR3 [1] is “inhibited melanocyte death induced by CXCL10 in a dose-dependent manner”. Further, the “augmentation of T cell number” value on CXCR3 [2] (AS612568 2 μM, CD3+ T cells in IncuCyte co-culture, P=0.04, FIG. 3B) was “prevented”. Moreover, the “potentiating effect of T cells on CXCL10-induced melanocyte death” value at CXCR3 [2] (AS612568 2 μM, IFNγ-pretreated vitiligo melanocytes plus autologous CD3+ T cells, P=0.008, FIG. 3A) is given as “prevented”. The T cell proliferation entry at CXCR3 [2] (AS612568, T cells co-cultured with IFNγ-primed, CXCL10-stimulated melanocytes, data not shown) is reported as “prevented”.

B1: CXCL11: recombinant human chemokine (PeproTech), CXCR3 ligand used as stimulus (protein, UniProt O14625 22-94, looked up)
C-X-C motif chemokine 11: FPMFKRGRCLCIGPGVKAVKVADIEKASIMYPSNNCDKIEVIITLKENKGQRCLNPKSKQARLIIKKVERKNF
As for B1, the melanocyte death result with human melanocytes was “induced a significant melanocyte death”.

B2: CXCL9: recombinant human chemokine (PeproTech), CXCR3 ligand used as stimulus (protein, UniProt Q07325 23-125, looked up)
C-X-C motif chemokine 9: TPVVRKGRCSCISTNQGTIHLQSLKDLKQFAPSPSCEKIEIIATLKNGVQTCLNPDSADVKELIKKWEKQVSQKKKQKNGKKHQKKKVLKVRKSQRSRQKKTT
With B2, the melanocyte death entry in the test with human melanocytes is “induced a significant melanocyte death”.
